Results as given in patent US7833964B2, “Methods of reducing visceral fat by increasing levels of insulin-like growth factor-I (IGF-I)” (Tercica, Inc., priority 2003, dated 2010).
Where “and” joins values, the source holds several entries; their conditions need not be identical. Identical values can stand only once.

What was measured:
Type in all cases: in vivo, human
hemoglobin A1c (HbA1c) = experiment: Glucose control: change from baseline in HbA1c, double-blind placebo-controlled study in type II DM; details: for Hemoglobin A1c Endpoint Change % from baseline, Mean (SD): last available measurement carried forward; for Hemoglobin A1c Change % from baseline, Week 4, Mean (SD): type II DM subjects
Procedure: Accordingly, subjects with type II DM were treated with a combination of rhIGF-I and glyburide, or with rhIGF-I or glyburide alone, to ascertain the potential benefits of the addition of rh1GF-I to glyburide therapy on glycemic control, incidence of hypoglycemia, and weight gain. […] The use of any additional orally administered drug or insulin to treat hyperglycemia during the pretreatment and treatment periods was prohibited. […] Randomization was stratified by gender, by prior oral […] agent therapy, and by HbA1c level at day 14.

Change in body weight [1] = details: for Weight Change (SE) Week 12: change from Day 1
Description: The efficacy endpoints were the change in glucose control as assessed by the change from baseline (day 1 to week 12) in hemoglobin A1c (HbA1c) levels, and changes from baseline (day 1 to week 12) in fasting blood glucose (BG), body weight, and visceral and mid-thigh fat.
The primary efficacy variable for the assessment of treatment effect on glucose control at Week 12 was the change from baseline (day 1) in HbA1c levels. Secondary efficacy variables assessing glucose control at Week 12 were the change from baseline (day 1) for each of the following: fasting blood glucose concentration, weight, and visceral and mid-thigh fat.
Secondary efficacy variables assessing glucose control at Week 12 were the change from baseline (Day 1) for each of the following: weight, and visceral and mid-thigh fat.

Change in BMI = details: for BMI Change (SE) Wk 14: 2 weeks after treatment stopped
Description: The degree of obesity in humans is commonly assessed by calculating the body mass index or BMI. The BMI is essentially correcting body weight for height. Obviously a very tall person will likely weigh more than a person with short stature so this correction for height makes BMI a better gauge of the degree of obesity than uncorrected body weight. Table 6 gives the BMI data for the subjects treated with IGF-I. At baseline the subjects had average BMIs of over 30. Overweight is defined as a BMI of over 25 and obesity is defined as a BMI of over 30. […] Treatment with IGF-I reduced BMI and this effect was maintained until week 14, which was 2 weeks after treatment with IGF-I was stopped. In subjects treated with 20 micrograms of IGF-I, BMI fell by 1.0 kg/m^2 at 12 weeks and 0.9 kg/m^2 at week 14. This effect of IGF-I on BMI was highly statistically significant versus glyburide at week 12 (p=0.019) and week 14 (p=0.0064). Therefore IGF-I had the ability to reduce BMI or directly affect the most widely accepted measure of obesity. […] This greater effect of low dose IGF-I was unexpected.

[2] = Abdominal CT scan: visceral (VAT) and subcutaneous (SAT) adipose tissue, abdominal perimeter; details: for change in abdominal perimeter by CT scan, mean±SEM: 12 weeks
Procedure: All CT scans were performed on GE Sytec 4000 CT scanners or an equivalent scanner.
An initial Abdominal Scan was performed using the following procedure: • 1. After the thigh scan was complete, a small triangular wedge pillow was placed under the subject's knees to help tilt the spine to the correct position. The arms were crossed over the chest/neck with elbows up and out of the way of the abdomen. The subject's underpants were pulled down so that the elastic of the underwear was well out of the way of the site where the scan was taken. • 2. The technician positioned the bed in the scanner so that a lateral topogram could be taken that included at least T12 through L5 of the spine. This picture was recorded on film. • 3. The location of the midsection of L3 was identified. • 4. A 10-mm slice at the level of the midpoint of L3 (angle must be zero so that the slice was perpendicular) was taken at the same settings as were used for the thigh slice, with the exception of the DFOV, which was 35 or 45 (35 for a small person and 45 for a large person).
The entire cross section of the abdomen was on the screen. If the entire abdomen was not on the screen, the picture was reconfigured. Once the entire abdomen was on the screen, the technician downloaded it onto the disk and verified that the image was actually on the disk. This was then recorded on film. • 5. The technician sent the film to the printer at this point. It was a requirement that each film had four pictures, and the film had the lateral topogram of the spine and the slice. • 6. The technician then recorded the exam number, the series number, and the image number of slice. • 7. The subject was then removed from the table if there were no more measurements to obtain and the film was collected.
The same procedures were then followed for the repeat abdominal scans with identical settings and locations being used for the repeat scans.
Slices were downloaded onto the scanner and then retrieved via optical disk (or the Internet if possible) to a computer for analysis. During analysis, the area of intra-abdominal and subcutaneous fat as well as oblique, psoas, quadratum laborum, and sacrospinalis muscles were measured. The images were digitized by optical density to separate bone, muscle, and fat compartments using a modified version of the NIH IMAGE program. Pixel units were converted to area measurements using an internal calibration standard. Digitized images were analyzed in a blinded fashion. The coefficient of variation of repeated analysis of a single scan is <1.5%.
Another independent measurement was that the CT scan assessed the abdominal diameter and the abdominal perimeter (e.g., belt size). The abdominal perimeter in subjects treated with glyburide alone was unchanged (−0.3±0.8 cm, mean±SEM) but in subjects treated with IGF-I at 20 micrograms/kg it was reduced (−1.4±0.8 cm) and was reduced even more in subjects treated with 40 micrograms/kg to (−2.9±1.3 cm). This reduction in “girth” caused by high dose IGF-I was, in layman's terms over an inch, or one belt notch, clearly a significant effect in only 12 weeks.
The body components contributing to these beneficial effects of IGF-I on body weight, BMI and girth were then analyzed by studying the changes in body composition as measured by computerized scanning. Two scans were performed. A scan was performed before treatment with IGF-I and another scan was performed after treatment with IGF-I. These two scans were analyzed by measuring the area of fat so that the effect of treatment with IGF-I could be ascertained.
The effect of IGF-I on body fat was estimated using the visceral adipose tissue (VAT) in abdomen and the subcutaneous adipose tissue (SAT) in the abdomen. The absolute changes in fat and the percent changes in fat were both analyzed. The percent changes were analyzed to guard against subjects with larger amounts of fat being given undue statistical weight in the analyses. […]

Change in body weight [3] = details: for Weight Change (SE) Week 14: 2 weeks after treatment stopped; for Weight Change (SE) Week 8: change from Day 1
[4] = glyburide 10 mg BID + rhIGF-I placebo
[5] = glyburide active + IGF-I placebo
[6] = glyburide active + IGF-I placebo, abdominal CT, change from baseline
[7] = rhIGF-I 20 μg/kg BID SC, with glyburide 10 mg BID or glyburide placebo per label
[8] = rhIGF-I 40 μg/kg BID SC, with glyburide 10 mg BID or glyburide placebo per label
[9] = IGF-I 20 μg/kg BID, with glyburide or glyburide placebo per label
[10] = IGF-I 40 μg/kg BID, with glyburide or glyburide placebo per label
[11] = low dose IGF-I (20 μg/kg BID) alone
[12] = subjects treated with 20 micrograms of IGF-I
[13] = IGF-I 20 μg/kg, with glyburide or glyburide placebo per label
[14] = IGF-I 40 μg/kg, with glyburide or glyburide placebo per label

Molecule: COc1ccc(Cl)cc1C(=O)NCCc1ccc(S(=O)(=O)NC(=O)NC2CCCCC2)cc1 [Glyburide, glyburide, reference compound]
- Hemoglobin A1c Change % from baseline, Week 8, Mean (SD) (hemoglobin A1c (HbA1c); [4]): 0.05 (0.7) %
- Hemoglobin A1c Change % from baseline, Week 12, Mean (SD) (hemoglobin A1c (HbA1c); [4]): 0.32% and 0.32 (0.7) %
- Hemoglobin A1c Endpoint Change % from baseline, Mean (SD) (hemoglobin A1c (HbA1c); [4]): 0.12 (0.8) %
- Hemoglobin A1c Change % from baseline, Week 4, Mean (SD) (hemoglobin A1c (HbA1c); [4]): −0.13 (0.5) %
- Weight Change (SE) Week 12 (Change in body weight [1]; [4]): −0.1 (0.5) kg
- BMI Change (SE) Wk 12 (Change in BMI; [4]): 0.0 (0.2) kg/m^2
- BMI Change (SE) Wk 14 (Change in BMI; [4]): 0.0 (0.3) kg/m^2
- BMI Change (SE) Wk 8 (Change in BMI; glyburide 10 mg BID + rhIGF-I placebo, change from Day 1): −0.1 (0.1) kg/m^2
- Mean SAT % Change (SEM) [2, 5]: 1% and 1.0 (1.9) %
- Mean VAT % Change (SEM) [2, 5]: 9% and 9.3 (3.9) %
- Change in SAT, mean (SEM) [2, 6]: 2.0 (5.6) cm^2
- Change in VAT, mean (SEM) [2, 6]: 13.6 (6.4) cm^2
- change in abdominal perimeter by CT scan, mean±SEM ([2]; glyburide alone): −0.3±0.8 cm
- Weight Change (SE) Week 14 (Change in body weight [3]; [4]): 0.0 (0.8) kg
- Weight Change (SE) Week 8 (Change in body weight [3]; [4]): −0.2 (0.4) kg

Molecule: IGF-I: recombinant human insulin-like growth factor-I from Genentech; sterile benzyl alcohol-preserved solution, 70 mg in 7 mL acetate/NaCl, pH 5.4; given SC
- Hemoglobin A1c Change % from baseline, Week 8, Mean (SD) (hemoglobin A1c (HbA1c); [7]): −0.29 (0.8) %
- Hemoglobin A1c Change % from baseline, Week 12, Mean (SD) (hemoglobin A1c (HbA1c); [7]): 0.13 (1.2) %
- Hemoglobin A1c Change % from baseline, Week 4, Mean (SD) (hemoglobin A1c (HbA1c); [7]): −0.10 (0.6) %
- Hemoglobin A1c Endpoint Change % from baseline, Mean (SD) (hemoglobin A1c (HbA1c); rhIGF-I 20 μg/kg BID SC, with glyburide 10 mg BID or placebo per label): 0.04 (0.9) %
- Hemoglobin A1c Change % from baseline, Week 8, Mean (SD) (hemoglobin A1c (HbA1c); [8]): −0.47 (0.9) %
- Hemoglobin A1c Change % from baseline, Week 12, Mean (SD) (hemoglobin A1c (HbA1c); [8]): −0.58% and −0.58 (1.2) %
- Hemoglobin A1c Change % from baseline, Week 4, Mean (SD) (hemoglobin A1c (HbA1c); [8]): −0.37 (0.5) %
- Hemoglobin A1c Endpoint Change % from baseline, Mean (SD) (hemoglobin A1c (HbA1c); rhIGF-I 40 μg/kg BID SC, with glyburide 10 mg BID or placebo per label): −0.30 (0.8) %
- Weight Change (SE) Week 12 (Change in body weight [1]; [9]): −2.8 (0.7) kg
- Weight Change (SE) Week 12 (Change in body weight [1]; [10]): −0.6 (0.7) kg
- weight lost on average, Week 12 (Change in body weight [1]; [11]): 2.8 kg
- BMI Change (SE) Wk 8 (Change in BMI; [9]): −0.5 (0.2) kg/m^2
- BMI Change (SE) Wk 12 (Change in BMI; [9]): −1.0 (0.2) kg/m^2
- BMI Change (SE) Wk 14 (Change in BMI; [9]): −0.9 (0.2) kg/m^2
- BMI Change (SE) Wk 8 (Change in BMI; [10]): −0.1 (0.2) kg/m^2
- BMI Change (SE) Wk 12 (Change in BMI; [10]): −0.2 (0.2) kg/m^2
- BMI Change (SE) Wk 14 (Change in BMI; [10]): −0.6 (0.2) kg/m^2
- BMI fell by, at 12 weeks (Change in BMI; [12]): 1.0 kg/m^2
- BMI fell by, at week 14 (Change in BMI; [12]): 0.9 kg/m^2
- Change in SAT, mean (SEM) [2, 13]: −12.3 (4.1) cm^2
- Change in VAT, mean (SEM) [2, 13]: 1.0 (9.0) cm^2
- Mean SAT % Change (SEM) [2, 13]: −6.0 (2.6) %
- Mean VAT % Change (SEM) [2, 13]: 1.0 (4.0) %
- Change in SAT, mean (SEM) [2, 14]: −16.1 (5.4) cm^2
- Change in VAT, mean (SEM) [2, 14]: −20.0 (7.6) cm^2
- Mean SAT % Change (SEM) [2, 14]: −6.4 (2.5) %
- Mean VAT % Change (SEM) [2, 14]: −9.4 (3.9) %
- visceral fat area reduced by ([2]; IGF-I alone at 40 μg/kg): ~10%
- change in abdominal perimeter by CT scan, mean±SEM ([2]; IGF-I at 20 micrograms/kg): −1.4±0.8 cm
- change in abdominal perimeter by CT scan, mean±SEM ([2]; IGF-I at 40 micrograms/kg): −2.9±1.3 cm
- Weight Change (SE) Week 14 (Change in body weight [3]; [9]): −2.7 (0.6) kg
- Weight Change (SE) Week 8 (Change in body weight [3]; [9]): −1.5 (0.6) kg
- Weight Change (SE) Week 14 (Change in body weight [3]; [10]): −1.6 (0.5) kg
- Weight Change (SE) Week 8 (Change in body weight [3]; [10]): −0.2 (0.5) kg
- weight loss 2 weeks after treatment was stopped (Week 14) (Change in body weight [3]; [11]): 2.7 kg
- weight lost on average, Week 8 (Change in body weight [3]; [11]): 1.5 kg
